Measured values from patent US20230382889A1 (Volastra Therapeutics, Inc., priority 2022, published 2023).

Experiments:
[1] = tested on: JIMT-1 cells; experiment: Cell viability of KIF18a-sensitive cell lines, JIMT-1 (Cell Titre-Glo, 7 days); format: cell-based; conditions: Homo sapiens, 168 h; JIMT-1, 7 days; read-out: JIMT-1 IC50
Experimental: (§1) Cell lines were seeded as follows 24 hours before compound treatment: HCC15 (Korean Cell Line Bank) 600 cell/well, 95 μL of RPMI-1640 media supplemented with 100 units/mL penicillin, 100 units/mL streptomycin and 10% FBS; NIH:OVCAR-3 (ATCC), 1000 cell/well, 95 μL of RPMI-1640 media supplemented with 100 units/mL penicillin, 100 units/mL streptomycin, 0.01 mg/mL bovine insulin, and 20% FBS; JIMT-1 (Addexbio) 1000 cell/well, 95 μL of DMEM media supplemented with 100 units/mL penicillin, 100 units/mL streptomycin, and 10% FBS.
(§2) Test compounds were added to cells in a 20× dilution scheme by adding 5 μL of serially diluted compound to the plate, and the treated cells were incubated for an additional 7 days in a 37° C., 5% CO2 incubator. DMSO was used as the negative control (0% effect), and wells omitting cells were used as the positive control (100% effect). The cells were incubated for seven days, and cell viability determined via the Promega Cell Titre-Glo® Assay kit. Luminescence units were converted to ATP concentrations via an ATP standard curve (10 point, 2-fold dilution from 5 uM). % Inhibition was calculated for each well as: ([max−min]−[test−min])/[max−min]. IC50 values were calculated from concentration vs. % Inhibition data via a four-parameter variable slope model.

[2] = tested on: HCC15 tumor cells; experiment: In vivo activity, HCC15 xenograft tumor growth inhibition; conditions: HCC15 model, SCID Beige mice, FIG. 2
Experimental: (§3) OVCAR-3 (ATCC) tumor cells were maintained in vitro in RPMI-1640 medium supplemented with 20% fetal bovine serum, 0.01 mg/mL bovine insulin and 1% Anti-Anti at 37° C. in an atmosphere of 5%/CO2 in air. HCC15 (DSMZ) tumor cells were maintained in vitro in RPMI 1640 medium supplemented with 10% fetal bovine serum and 1% Anti-Anti at 37° C. in an atmosphere of 5% CO2 in air.
(§4) The tumor cells were sub-cultured twice weekly. The cells growing in an exponential growth phase were harvested and counted for tumor inoculation.
(§5) Tumor cells (10×106) in 0.2 mL of PBS mixed with Matrigel (50:50) were inoculated subcutaneously on the right flank of each mouse. When the average tumor volume reached 110-175 mm^3, animals were randomized into groups of 10 and treatment started. OVCAR-3 cells were implanted in Balb/C nude mice, and HCC15 cell were implanted in SCID Beige mice.
(§6) Compounds were dosed once or twice a day (12 h) orally. Tumor Growth Inhibition (TGI) was calculated using the formula: TGI (%)=[1−(TN−T0)/(VN−V0)]×100; TN is the average tumor volume of a treatment group at the indicated timepoint, T0 is the average tumor volume of the treatment group on treatment day 0, VN is the average tumor volume of the vehicle control group at the indicated timepoint, and V0 is the average tumor volume of the vehicle group on treatment day 0. P value was calculated based on tumor size by One-Way ANOVA with GraphPad Prism 9.4.0 compared with the vehicle group, respectively. **** indicates p<0.0001.
(§7) The tumor volume of vehicle- and compound-treated mice as a function of time after start of treatment and the results of treatments with selected compounds on SCID Beige mice or nude mice implanted with HCC15 or OVCAR-3 are shown in FIGS. 1 and 2. The TGI calculated for treatments with selected compounds are shown in Table 11.

[3] = tested on: HCC15 cells; experiment: Cell viability of KIF18a-sensitive cell lines, HCC15 (Cell Titre-Glo, 7 days); format: cell-based; conditions: 168 h; HCC15, 7 days; read-out: HCC15 IC50
Experimental: as §1, §2

[4] = tested on: NIH:OVCAR-3 cells; experiment: Cell viability of KIF18a-sensitive cell lines, NIH:OVCAR-3 (Cell Titre-Glo, 7 days); format: cell-based; conditions: Homo sapiens, OVCAR-3, 168 h; NIH:OVCAR3, 7 days; read-out: NIH:OVCAR3 IC50
Experimental: as §1, §2

[5] = molecular target: hKIF18A (1-374) (Homo sapiens (Human), UniProt Q8NI77); experiment: Inhibition of KIF18A microtubule-dependent ATPase activity (ADP-Glo); format: biochemical; conditions: 4 nM hKIF18A (1-374)
Summary of the method: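 Reaction was started with pre-formed microtubules and ATP (0.2 mg/mL and 2.0 mM in the added mix) and run 60 min at 28 °C. ADP was read by ADP-Glo luminescence, and IC50 came from a four-parameter fit of % inhibition.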

[6] = molecular target: KIF18a-microtubule complex (Homo sapiens (Human), UniProt Q8NI77); experiment: Binding kinetics to KIF18a-microtubule complex (global progress curve analysis)
Experimental: Compound binding kinetics parameters (kon and koff) were determined by the method of global progress curve analysis (GPCA). […] ADP product levels were determined by the Promega® ADP-Glo assay.

[7] = tested on: OVCAR-3 tumor cells; experiment: In vivo activity, OVCAR-3 xenograft tumor growth inhibition; conditions: OVCAR3 model, Balb/C nude mice, FIG. 1
Experimental: as §3, §4, §5, §6, §7

Sequence of KIF18a-microtubule complex (Q8NI77 1-374, one chain of several): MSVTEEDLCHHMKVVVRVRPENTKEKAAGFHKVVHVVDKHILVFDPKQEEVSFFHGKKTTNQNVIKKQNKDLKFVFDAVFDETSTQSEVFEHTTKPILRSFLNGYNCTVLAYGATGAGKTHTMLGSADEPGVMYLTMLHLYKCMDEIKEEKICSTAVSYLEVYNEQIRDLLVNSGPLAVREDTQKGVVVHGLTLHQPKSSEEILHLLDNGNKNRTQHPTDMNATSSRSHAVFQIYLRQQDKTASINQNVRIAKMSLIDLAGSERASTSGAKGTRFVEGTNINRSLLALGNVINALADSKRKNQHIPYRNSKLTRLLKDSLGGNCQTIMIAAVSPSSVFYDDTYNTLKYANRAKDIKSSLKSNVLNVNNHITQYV
Sequence of hKIF18A (1-374) (Q8NI77 1-374): as the sequence (Q8NI77 1-374, one chain of several) above

IC50 [3]: 9.2 nM
IC50 [4]: 13 nM
IC50 [5]: 19 nM
kon (on-rate from binding kinetics assay) ([6]; KIF18A 0.25 nM, up to 24 hr): 14400 M⁻¹ s⁻¹
koff ([6]; KIF18A 0.25 nM, up to 24 hr, read-out: koff (off-rate from binding kinetics assay) (converted)): 2.78e-06 s⁻¹
Ki ([6]; koff/kon, read-out: KI (determined from binding kinetic assay koff/kon)): 0.2 nM
disc. t1/2 (dissociation half-life ln(2)/koff) ([6]; ln(2)/koff): 68 h
Structure (SMILES): Cc1cc(-c2cn(-c3ccc(NS(=O)(=O)CCO)cc3N3CCC4(CC3)CC4)nn2)nc(N2CCC(F)(F)CC2)n1 [Compound 47, N-(4-(4-(2-(4,4-difluoropiperidin-1-yl)-6-methylpyrimidin-4-yl)-1H-1,2,3-triazol-1-yl)-3-(6-azaspiro[2.5]octan-6-yl)phenyl)-2-hydroxyethane-1-sulfonamide]
IC50 [1]: 16 nM
TGI ([2]; 3 mg/kg QD PO): 64 ± 7%
TGI ([2]; 10 mg/kg QD PO): 83 ± 4%
TGI ([2]; 30 mg/kg QD PO): 87 ± 4%
TGI ([7]; 3 mg/kg QD PO): 44 ± 11%
TGI ([7]; 10 mg/kg QD PO): 119 ± 1%
TGI ([7]; 30 mg/kg QD PO): 120 ± 1%
